Data on one substance can be found in patent publication US20040013733A1, “Preparation of a biodegradable thermal-sensitive gel system” (Industrial Technology Research Institute, priority 2001, published 2004).

The test has as its system blood vessel growth (angiogenesis). The test can be described thus: The angiogenesis animal model: gel of Example 4 mixed with drug injected to mice, blood vessel growth observed. The test is classed as in vivo. Particulars: drug in gel of Example 4, 0.5 mL gel injected, two months old mice, N=2, after 15 days, gel and adjacent tissue. The method, then: The gel solution prepared according the process of Example 4 was mixed with various drugs listed in tablet at room temperature and is injected (0.5 mL gel each) to two months old mice, N=2. Sacrifice the mice after 15 days and take out the gel and its adjacent tissue to observe the blood vessel growth. The results are listed in table 1 and shown in the color pictures supplemented (please refer to attachments).
The tissue taken out was observed by electron microscope and the results were shown as FIG. 2.
In other words, the endothecium cell and blood vessels of the host can develop in the beehive structure of the gel. The results tell us that co-administrate the gel of the present invention and angiogenesis drug did benefit angiogenesis.

“bFGF: angiogenesis-inducing growth factor, 250 ng/ml, mixed with gel of Example 4”: the “Blood vessel growth state” value is on record as “Angiogenesis is present”.
